The assay relates to P388 leukemia. As to the kind of experiment: NCI tumour cell line growth inhibition, 48 h.

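Grown in 96-well plates, cells were treated for 48 hours with each compound at five concentrations. Insufficient inhibition: endpoint recorded as highest concentration tested. At the TGI there is no net growth.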

For the compound `C=C(C)C(=O)NC(N)=NC#N`, the TGI worked out at 13.9 µM.
